Measured values taken from paper PMC12655637, “Design, Synthesis, and Mechanistic Study of Novel Ciprofloxacin/Thiazole Chalcone Hybrids as Potential Anticancer Agents” (Pharmaceuticals, 2025).

Columns and labels:
Assay in all cases: NCI-60 screening, one-dose (10 µM) and five-dose, SRB
786−0 = format: cell-based, human; settings: Homo sapiens; 10 μM; 786−0, Renal Cancer; read-out: Growth percentage
SW-620 = format: cell-based, human; settings: Homo sapiens; 10 μM; SW-620, Colon Cancer; read-out: Growth percentage
TK-10 = format: cell-based, human; settings: Homo sapiens; 10 μM; TK-10, Renal Cancer; read-out: Growth percentage
NCI-H460 = format: cell-based, human; settings: Homo sapiens, NCI-H460, 10 μM; NCI-H460, Non-Small-Cell Lung Cancer; read-out: Growth percentage
A498 = format: cell-based; settings: Homo sapiens, A498, 10 μM; A498, Renal Cancer; read-out: Growth percentage
SN12C = format: cell-based, human; settings: Homo sapiens, 10 μM, Renal Cancer, read-out: Growth percentage
SNB-75 = format: cell-based, human; settings: Homo sapiens; 10 μM; SNB-75, CNS Cancer; read-out: Growth percentage
OVCAR-8 = format: cell-based, human; settings: Homo sapiens; 10 μM; OVCAR-8, Ovarian Cancer; read-out: Growth percentage
NCI/ADR-RES = format: cell-based, human; settings: Homo sapiens, 10 μM, Ovarian Cancer, read-out: Growth percentage
LOX IMVI = format: cell-based, human; settings: Homo sapiens, 10 μM, Melanoma, read-out: Growth percentage
SK-MEL-5 = format: cell-based, human; settings: Homo sapiens; 10 μM; SK-MEL-5, Melanoma; read-out: Growth percentage
M14 = format: cell-based, human; settings: Homo sapiens; 10 μM; M14, Melanoma; read-out: Growth percentage
SF-295 = format: cell-based, human; settings: Homo sapiens; 10 μM; SF-295, CNS Cancer; read-out: Growth percentage
MDA-MB-468 = format: cell-based, human; settings: Homo sapiens, MDA-MB-468, 10 μM; MDA-MB-468, Breast Cancer; read-out: Growth percentage
From the text: Control cells Test cells FLD
available usually at NCI library.
An aliquot of frozen drug concentrate is […]

PC-3 = format: cell-based, human; settings: Homo sapiens; 10 μM; PC-3, Prostate Cancer; read-out: Growth percentage
HOP-62 = format: cell-based, human; settings: Homo sapiens, HOP-62, 10 μM; HOP-62, Non-Small-Cell Lung Cancer; read-out: Growth percentage
RPMI-8226 = format: cell-based, human; settings: Homo sapiens
HL-60(TB) = format: cell-based, human; settings: Homo sapiens
CAKI-1 = format: cell-based; settings: Homo sapiens; 10 μM; CAKI-1, Renal Cancer; read-out: Growth percentage
MDA-MB-435 = format: cell-based; settings: Homo sapiens, MDA-MB-435, read-out: Growth percentage, 10 μM; MDA-MB-435, Melanoma
NCI-H226 = format: cell-based, human; settings: Homo sapiens; 10 μM; NCI-H226, Non-Small-Cell Lung Cancer; read-out: Growth percentage
BT-549 = format: cell-based; settings: Homo sapiens; 10 μM; BT-549, Breast Cancer; read-out: Growth percentage
A549/ATCC = format: cell-based, human; settings: Homo sapiens, 10 μM, Non-Small-Cell Lung Cancer, read-out: Growth percentage
SK-MEL-2 = format: cell-based, human; settings: Homo sapiens; 10 μM; SK-MEL-2, Melanoma; read-out: Growth percentage
COLO 205 = format: cell-based, human; settings: Homo sapiens; 10 μM; COLO 205, Colon Cancer; read-out: Growth percentage
HCT-15 = format: cell-based, human; settings: Homo sapiens; 10 μM; HCT-15, Colon Cancer; read-out: Growth percentage
RXF 393 = format: cell-based; settings: Homo sapiens; 10 μM; RXF 393, Renal Cancer; read-out: Growth percentage
HCT-116 = format: cell-based, human; settings: Homo sapiens

SMILES	activity at 10 µM (786−0) [%]	activity at 10 µM (SW-620) [%]	activity at 10 µM (TK-10) [%]	activity at 10 µM (NCI-H460) [%]	activity at 10 µM (A498) [%]	activity at 10 µM (SN12C) [%]	activity at 10 µM (SNB-75) [%]	activity at 10 µM (OVCAR-8) [%]	activity at 10 µM (NCI/ADR-RES) [%]	activity at 10 µM (LOX IMVI) [%]	activity at 10 µM (SK-MEL-5) [%]	activity at 10 µM (M14) [%]	activity at 10 µM (SF-295) [%]	activity at 10 µM (MDA-MB-468) [%]	activity at 10 µM (PC-3) [%]	activity at 10 µM (HOP-62) [%]	activity at 10 µM (CAKI-1) [%]	activity at 10 µM (MDA-MB-435) [%]	activity at 10 µM (NCI-H226) [%]	activity at 10 µM (BT-549) [%]	also measured
CC(=O)c1sc(SCC(=O)N2CCN(c3cc4c(cc3F)c(=O)c(C(=O)O)cn4C3CC3)CC2)nc1C [Compound 4a, 7-(4-(2-((5-Acetyl-4-methylthiazol-2-yl)thio)acetyl)piperazin-1-yl)-1-cyclopropyl-6-fluoro-4-oxo-1,4-dihydroquinoline-3-carboxylic Acid]	96.2	113	97.9	104	104	98	79.2	105	108	106	89	104	94.2	111	98.8	95.6	99.2	99.4	117	98.3	activity at 10 µM (RPMI-8226; RPMI-8226, 10 μM, RPMI-8226, Leukemia, read-out: Growth percentage): 133%; activity at 10 µM (HL-60(TB); HL-60, 10 μM, HL-60(TB), Leukemia, read-out: Growth percentage): 102%; activity at 10 µM (A549/ATCC): 104%; activity at 10 µM (SK-MEL-2): 97.4%; activity at 10 µM (COLO 205): 118%; activity at 10 µM (HCT-15): 102%; activity at 10 µM (RXF 393): 91.7%; activity at 10 µM (HCT-116; HCT-116, 10 μM, HCT-116, Colon Cancer, read-out: Growth percentage): 113%
COc1cccc(/C=C/C(=O)c2sc(SCC(=O)N3CCN(c4cc5c(cc4F)c(=O)c(C(=O)O)cn5C4CC4)CC3)nc2C)c1OC [Compound 4k, (E)-1-Cyclopropyl-7-(4-(2-((5-(3-(2,3-dimethoxyphenyl)acryloyl)-4-methylthiazol-2-yl)thio)acetyl)piperazin-1-yl)-6-fluoro-4-oxo-1,4-dihydroquinoline-3-carboxylic Acid]	96.9	90.7	105	73.1	90.9	87.5	100	87.6	112	104	83	75.1	97.4	48.5	93.5	-20.2	107	53.2	102	63.3	IC50 (RPMI-8226; RPMI-8226, RPMI-8226): 340 nM; IC50 (HL-60(TB); HL-60, leukemia HL-60): 2950 nM; activity at 10 µM (A549/ATCC): 106%; activity at 10 µM (SK-MEL-2): 93.4%; activity at 10 µM (COLO 205): 126%; activity at 10 µM (HCT-15): 64.5%; activity at 10 µM (RXF 393): 86.3%; IC50 (HCT-116; colon HCT-116): 340 nM
